Laboratory results published in paper PMC4014597 (PLoS ONE, 2014).

Experiments:
[1] = target: T1, C-terminal catalytic domain of human DNMT3A (hDNMT3A) (Homo sapiens, UniProt Q9Y6K1); experiment: DNMT3A assay (restriction-based fluorescence assay); assay type: biochemical; settings: for inhibition at 100 µM: 100 µM compound; for inhibition at 100 µM / inhibition at 10 µM / inhibition at 32 µM / inhibition at 3.2 µM: read-out: % inhibition ± SD hDNMT3A
T1 construct: catalytic domain of human DNMT3A (residues 623–908), produced as described; made in house
Excerpt: DNMT3A enzyme inhibition was adapted from the restriction-based fluorescence assay protocol described in Ceccaldi et al.. Briefly, a 5'-labelled biotin oligonucleotide is hybridized to its complementary strand labelled with 6-carboxyfluorescein at the 3′-end into a 384 well microplate (black Optiplates; Perkin Elmer) pre-coated with avidin. The duplex contains a unique CpG site overlapping with a restriction site of a methylation sensitive restriction enzyme. The C-terminal catalytic domain of human DNMT3A (residues 623–908), produced as described, was added in each well (200 ng/well) and mixed with the chemical compounds at desired concentrations and freshly prepared AdoMet (20 µM final concentration) to start the reaction in a total volume of 50 µL. After 1 hour incubation at 37°C each well were washed three times with PBS, 0.05% Tween-20, 500 mM NaCl and three more times with PBST. Specific fluorescent signals were detected with the methylation-sensitive restriction enzyme HpyCH4IV (NEB) as described and measured on a Perkin Elmer Envision detector. The percentage of inhibition is reported. The formula used to calculate the percentage of inhibition is [(X-Y)/X]×100, where X is the signal determined in the absence of the inhibitor and Y is the signal obtained in the presence of the inhibitor. […] The non-linear regression fittings with sigmoidal dose-response (variable slope) were performed with GraphPad Prism 4.03 (GraphPad Software).

[2] = target: T2, human DNMT1 (hDNMT1) (Homo sapiens, UniProt P26358); experiment: DNMT1 assay (radioactive Flashplate methylation assay); assay type: biochemical; settings: 100 µM compound; for inhibition at 100 µM: read-out: % inhibition ± SD hDNMT1
T2 construct: His; made in house
Experimental: His-DNMT1 (182 kDa, human) was cloned, expressed and purified as described by Lee et al.. The DNMT1 assay was performed according to Gros et al.. Briefly, the reaction was started by addition of 90 nM of DNMT1 on a mix containing the tested compound (up to 1% DMSO), 1 µM of a AdoMet/[methyl-^3H]-AdoMet mix in a ratio of 3-to-1 (isotopic dilution 1*:3) and 0.3 µM of biotinylated DNA duplex in 10 µL final volume. The reaction was incubated at 37°C for 2 h in reaction buffer (20 mM HEPES pH 7.2, 1 mM EDTA, 50 mM KCl, 25 µg/mL BSA). 8 µL are then transferred into a streptavidin-coated Flashplate PLUS (PerkinElmer) containing 190 µL of 20 µM AdoHcy (Sigma-Aldrich) in 50 mM Tris-HCl pH 7.4. The Flashplate was agitated at room temperature for 1 h, washed three times with 200 µL of 0.05% Tween-20 in 50 mM Tris-HCl pH 7.4 and read in 200 µL of 50 mM Tris-HCl pH 7.4 on TopCount NXT (PerkinElmer). Percentages of inhibition were calculated with the same formula as in DNMT3A assay.

[3] = target: T3, human G9a-like protein (GLP) (Homo sapiens, UniProt Q9H9B1); experiment: GLP assay (histone methylation inhibition); assay type: biochemical; settings: 8 μM inhibitor; read-out: Percent of GLP inhibition
T3 construct: catalytic SET domain (residues 734-1235; pXC758) were purified as described; made in house
T3 sequence (Q9H9B1 765-1266): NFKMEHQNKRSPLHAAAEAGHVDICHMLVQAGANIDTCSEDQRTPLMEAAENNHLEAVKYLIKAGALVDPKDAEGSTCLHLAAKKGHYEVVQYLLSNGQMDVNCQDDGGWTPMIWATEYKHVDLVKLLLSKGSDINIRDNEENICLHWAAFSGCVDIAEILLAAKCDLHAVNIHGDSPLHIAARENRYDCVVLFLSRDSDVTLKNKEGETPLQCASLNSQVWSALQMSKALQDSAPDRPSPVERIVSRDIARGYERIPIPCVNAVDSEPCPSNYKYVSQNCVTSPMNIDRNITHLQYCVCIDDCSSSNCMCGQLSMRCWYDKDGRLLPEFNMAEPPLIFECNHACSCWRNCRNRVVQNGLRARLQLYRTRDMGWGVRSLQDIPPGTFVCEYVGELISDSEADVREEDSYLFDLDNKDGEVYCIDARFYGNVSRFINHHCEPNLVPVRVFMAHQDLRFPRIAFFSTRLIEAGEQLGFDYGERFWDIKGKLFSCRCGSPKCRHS
Experimental: GLP Assay. Recombinant human G9a-like protein (GLP) C-terminal fragment containing both the ankyrin repeats and catalytic SET domain (residues 734-1235; pXC758) were purified as described. For histone methylation inhibition, the assay was performed in 20 μL reaction containing 4.6 mM [methyl-^3H]-AdoMet, 50 μg/mL histone from calf thymus (SIGMA), 10 μg/mL (0.17 μM) GLP, 100 mM KCl, 5 mM (DTT) and 50 mM Tris-HCl pH 8.5. GLP was pre-incubated with AdoMet and 8 µM inhibitors for 5 min at 30 °C before the addition of the histone substrate. After incubation (5 min), the reaction was terminated by the addition of 20% trichloroacetic acid (TCA, Fisher Scientific). The reaction mixture was spotted on GF/A paper circles (Whatman), washed three times with 3 mL of 10% TCA and once with 3 mL of ethanol. The dried circles were subjected to liquid-scintillation counting with Cytoscint scintillant.

[4] = test system: CMV-luc construct in KG-1 cells; experiment: CMV-luc assay (luciferase re-expression from methylated CMV promoter); assay type: cell-based; settings: 24 h
[5] = test system: RAJI cells; design: method as in PMID 24387159; settings: 48 h; read-out: IC50 (mean ± SD) cell viability RAJI; cited from earlier work
[6] = test system: U-937 cells; design: method as in PMID 24387159; settings: 48 h; read-out: IC50 (mean ± SD) cell viability U-937; cited from earlier work
[7] = target: T4, Human G9a (Homo sapiens, UniProt Q96KQ7); experiment: G9a assay (3H-AdoMet filter-binding); assay type: biochemical; settings: 10-dose IC50 mode, 2-fold serial dilution starting at 400 µM
T4 sequence (Q96KQ7 786-1210 limits assumed): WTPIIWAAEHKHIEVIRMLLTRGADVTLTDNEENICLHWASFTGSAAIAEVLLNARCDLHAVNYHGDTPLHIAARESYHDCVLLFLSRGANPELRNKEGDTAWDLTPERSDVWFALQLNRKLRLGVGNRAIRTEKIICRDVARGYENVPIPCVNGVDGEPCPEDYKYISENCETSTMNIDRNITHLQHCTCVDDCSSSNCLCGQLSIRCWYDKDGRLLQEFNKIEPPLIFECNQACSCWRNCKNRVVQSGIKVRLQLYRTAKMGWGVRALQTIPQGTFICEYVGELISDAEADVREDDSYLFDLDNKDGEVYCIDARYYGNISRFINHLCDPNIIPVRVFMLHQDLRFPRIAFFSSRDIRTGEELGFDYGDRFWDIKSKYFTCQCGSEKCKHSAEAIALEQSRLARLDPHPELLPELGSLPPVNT
Experimental: The reaction buffer was 50 mM Tris-HCl, pH 8.5, 50 mM NaCl, 5 mM MgCl2, 1 mM dithiothreitol (DTT), 1 mM PMSF, and 1% DMSO. Standard substrate concentrations were 5 µM biotinylated H3 (1–21) peptide (AnaSpec) substrate and 0.1 mM AdoMet. For control compound IC50 determinations, the test compounds were diluted in DMSO and then added to the enzyme/substrate mixture in nanoliter amounts by using an acoustic technology (Echo 500; Lab-cyte). The reaction was initiated by the addition of ^3H-AdoMet, and incubated at 30°C for 1 h. The reaction was detected by a filter-binding method. Data analysis was performed using Graph Pad Prism software for curve fits, and GraFit (Erithacus) for global fit of kinetic studies.

T2 sequence (P26358 whole entry): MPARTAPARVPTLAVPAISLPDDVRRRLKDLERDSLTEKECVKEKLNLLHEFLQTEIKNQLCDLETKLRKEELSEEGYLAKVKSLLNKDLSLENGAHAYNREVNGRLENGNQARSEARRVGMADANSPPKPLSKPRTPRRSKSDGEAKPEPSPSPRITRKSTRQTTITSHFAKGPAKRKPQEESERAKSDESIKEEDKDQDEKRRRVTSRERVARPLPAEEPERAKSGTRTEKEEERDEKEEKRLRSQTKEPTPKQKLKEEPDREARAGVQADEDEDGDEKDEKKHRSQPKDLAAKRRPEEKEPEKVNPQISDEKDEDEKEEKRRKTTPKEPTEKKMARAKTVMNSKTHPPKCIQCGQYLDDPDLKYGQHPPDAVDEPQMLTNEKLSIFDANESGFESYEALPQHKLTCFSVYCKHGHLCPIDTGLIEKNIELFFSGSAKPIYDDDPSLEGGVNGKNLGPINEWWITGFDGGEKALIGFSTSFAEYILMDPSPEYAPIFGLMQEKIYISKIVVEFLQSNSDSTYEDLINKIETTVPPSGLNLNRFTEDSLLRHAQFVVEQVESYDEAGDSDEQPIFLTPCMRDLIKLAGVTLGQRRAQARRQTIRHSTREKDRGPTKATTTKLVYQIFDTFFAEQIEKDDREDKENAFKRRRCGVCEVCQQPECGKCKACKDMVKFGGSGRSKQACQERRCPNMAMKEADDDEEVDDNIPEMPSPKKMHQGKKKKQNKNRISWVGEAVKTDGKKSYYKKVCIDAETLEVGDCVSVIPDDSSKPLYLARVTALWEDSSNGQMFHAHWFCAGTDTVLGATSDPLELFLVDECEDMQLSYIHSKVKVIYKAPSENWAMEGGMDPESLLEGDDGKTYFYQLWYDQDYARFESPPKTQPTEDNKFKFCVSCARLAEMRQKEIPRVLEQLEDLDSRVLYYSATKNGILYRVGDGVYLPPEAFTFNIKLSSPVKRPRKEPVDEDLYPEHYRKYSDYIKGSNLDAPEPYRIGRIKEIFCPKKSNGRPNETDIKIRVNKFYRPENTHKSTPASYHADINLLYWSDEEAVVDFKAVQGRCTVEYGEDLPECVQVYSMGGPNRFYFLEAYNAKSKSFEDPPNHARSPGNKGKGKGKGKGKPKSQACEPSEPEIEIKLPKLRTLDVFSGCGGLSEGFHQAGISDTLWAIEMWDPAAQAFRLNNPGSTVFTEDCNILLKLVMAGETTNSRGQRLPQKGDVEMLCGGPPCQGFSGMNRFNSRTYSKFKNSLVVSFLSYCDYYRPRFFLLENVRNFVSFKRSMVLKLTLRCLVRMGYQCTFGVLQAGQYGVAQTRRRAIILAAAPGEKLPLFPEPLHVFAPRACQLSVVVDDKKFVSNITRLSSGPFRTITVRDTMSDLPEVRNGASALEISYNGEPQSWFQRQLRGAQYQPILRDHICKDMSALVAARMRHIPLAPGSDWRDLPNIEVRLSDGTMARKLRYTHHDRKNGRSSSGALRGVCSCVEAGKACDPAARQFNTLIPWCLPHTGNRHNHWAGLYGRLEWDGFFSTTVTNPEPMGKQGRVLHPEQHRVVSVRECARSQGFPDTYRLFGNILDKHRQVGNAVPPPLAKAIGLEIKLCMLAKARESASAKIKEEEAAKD
T1 sequence (Q9Y6K1 627-912): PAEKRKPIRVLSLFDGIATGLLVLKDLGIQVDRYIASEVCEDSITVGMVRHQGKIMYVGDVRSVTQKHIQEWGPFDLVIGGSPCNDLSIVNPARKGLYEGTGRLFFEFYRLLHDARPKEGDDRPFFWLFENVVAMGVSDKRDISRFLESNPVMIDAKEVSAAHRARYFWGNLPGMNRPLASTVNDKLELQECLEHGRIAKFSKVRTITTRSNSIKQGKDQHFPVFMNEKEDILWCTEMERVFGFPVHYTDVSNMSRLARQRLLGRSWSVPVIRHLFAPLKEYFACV

| Compound | inhibition at 100 µM [1] [%] | inhibition at 100 µM [2] [%] | inhibition at 10 µM ([1]; 10 µM compound) [%] | inhibition at 32 µM ([1]; 32 µM compound) [%] | melting point [°C] | also measured |
| --- | --- | --- | --- | --- | --- | --- |
| COc1cc2nc(N3CCCN(C)CC3)nc(NC3CCN(Cc4ccccc4)CC3)c2cc1OC [Compound 1, BIX-01294, reference compound] | 12 ± 3 | 30 |  |  |  | % inhibition ± SD hDNMT1 ([2]; 100 µM): 35±8%; inhibition at 8 µM [3]: 91.7% |
| CN1CCN(c2nc(NC3CCN(Cc4ccccc4)CC3)c3ccccc3n2)CC1 [Compound 5] | 30 ± 8 | 0 | 0 | 14 ± 3 |  |  |
| c1ccc(CN2CCC(Nc3nc(N4CCCCC4)nc4ccccc34)CC2)cc1 [Compound 6] | 57 ± 8 | 0 | 14 ± 6 | 33 ± 6 |  | inhibition at 3.2 µM ([1]; 3.2 µM compound): 11 ± 5% |
| c1ccc(CN2CCC(Nc3nc(N4CCCCCC4)nc4ccccc34)CC2)cc1 [Compound 7] | 57 ± 3 | 0 | 16 ± 2 | 32 ± 3 | 119 to 122 | inhibition at 3.2 µM ([1]; 3.2 µM compound): 7 ± 2% |
| CC1CCN(c2nc(NC3CCN(Cc4ccccc4)CC3)c3ccccc3n2)CC1 [Compound 8] | 53 ± 3 | 0 | 14 ± 2 | 35 ± 5 | 106 to 108 | inhibition at 3.2 µM ([1]; 3.2 µM compound): 7 ± 1% |
| CC1CCCCN1c1nc(NC2CCN(Cc3ccccc3)CC2)c2ccccc2n1 (centres unmarked) [Compound 9] | 47 ± 5 | 0 | 5 ± 2 | 14 ± 7 | 128 to 129 | inhibition at 3.2 µM ([1]; 3.2 µM compound): 1 ± 1% |
| c1ccc(CN2CCC(Nc3nc(N4CCSCC4)nc4ccccc34)CC2)cc1 [Compound 11] | 42 ± 3 | 0 | 8 ± 2 |  | 155 to 157 |  |
| c1ccc(CN2CCC(Nc3nc(N4CCOCC4)nc4ccccc34)CC2)cc1 [Compound 12, N-(1-benzylpiperidin-4-yl)-2-morpholinoquinazolin-4-amine] | 7 | 0 |  |  |  |  |
| O=C(c1ccccc1)N1CCN(c2nc(NC3CCN(Cc4ccccc4)CC3)c3ccccc3n2)CC1 [Compound 15] | 23 ± 2 | 0 |  |  | 213 to 215 |  |
| OCCNc1nc(NC2CCN(Cc3ccccc3)CC2)c2ccccc2n1 [Compound 16] | 37 ± 4 | 0 | 8 ± 3 |  | 116 to 118 |  |
| CN(C)CCNc1nc(NC2CCN(Cc3ccccc3)CC2)c2ccccc2n1 [Compound 17] | 10 | 0 |  |  | 120 to 122 |  |
| CN(C)CCCNc1nc(NC2CCN(Cc3ccccc3)CC2)c2ccccc2n1 [Compound 18] | 8 ± 1 | 0 |  |  |  |  |
| Cc1cc(Nc2ccc(NC(=O)c3ccc(Nc4ccnc5ccccc45)cc3)cc2)nc(N)n1 [SGI-1027, reference compound] |  |  |  |  |  | fold-induction of the luciferase signal (CMV-luc) ([4]; 5 µM): 17 fold; fold-induction of the luciferase signal (CMV-luc) ([4]; 10 µM): 10 fold; fold-induction of the luciferase signal (CMV-luc) ([4]; 25 µM): no induction; % inhibition ± SD hDNMT3A ([1]; 3.2 µM compound): 80±4%; % inhibition ± SD hDNMT3A ([1]; 10 µM compound): 72±6%; % inhibition ± SD hDNMT3A ([1]; 32 µM compound): 75±7%; IC50 [5]: 9.1 ± 0.8 µM; % inhibition ± SD hDNMT1 [2]: 100±0.1%; IC50 [6]: 1700 ± 1100 nM |
| CN1C(=O)[C@@]23C[C@]4([C@]56C[C@@]78SS[C@@](CO)(C(=O)N7[C@H]5Nc5ccccc56)N(C)C8=O)c5ccccc5N[C@@H]4N2C(=O)[C@]1(CO)SS3 [chaetocin, reference compound] |  |  |  |  |  | IC50 [7]: 8 µM |
